Earlier results as cited in patent US20050058675A1, “Fullerene compositions for ameliorating dermatological conditions” (priority 2003, published 2005).

Test system: mice
Conditions: oral, about 0.5 mg/kg/day

C60(>C(COOH)2)3 [C3]
increase in mean survival relative to controls: ~20% | mean survival (controls 23.5+/−5.5 months, p=0.033): 28.7+/−3.3 months
